Assay results as given in ChEMBL document CHEMBL5137086, “Discovery of 1-(Hetero)aryl-β-carboline Derivatives as IDO1/TDO Dual Inhibitors with Antidepressant Activity” (J Med Chem, 2022).

Columns and labels:
[1] = biological target: T1, Tryptophan 2,3-dioxygenase (Homo sapiens, UniProt P48775); test: Inhibition of TDO (unknown origin) assessed as reduction in N-formylkynurenine formation using L-tryptophan as substrate incubated for 75 mins by UV absorbance based analysis
Target sequence in this assay (P48775 whole entry): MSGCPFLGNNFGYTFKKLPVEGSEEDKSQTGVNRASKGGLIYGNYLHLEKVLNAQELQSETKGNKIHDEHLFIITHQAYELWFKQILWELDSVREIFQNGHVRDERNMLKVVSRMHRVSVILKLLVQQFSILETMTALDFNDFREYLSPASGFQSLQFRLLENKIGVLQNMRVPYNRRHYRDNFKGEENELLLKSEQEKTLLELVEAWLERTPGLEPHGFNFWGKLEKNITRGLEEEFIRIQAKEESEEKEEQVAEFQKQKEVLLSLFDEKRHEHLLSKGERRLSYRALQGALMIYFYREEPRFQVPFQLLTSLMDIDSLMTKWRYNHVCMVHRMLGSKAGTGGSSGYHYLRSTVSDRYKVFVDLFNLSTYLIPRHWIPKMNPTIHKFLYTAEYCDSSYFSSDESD

[2] = biological target: T2, Indoleamine 2,3-dioxygenase 1 (Homo sapiens, UniProt P14902); test: Inhibition of IDO1 (unknown origin) assessed as reduction in kynurenine production using L-tryptophan as substrate at 50 uM incubated for 1 hr by absorbance based microplate reader analysis relative to control
Target sequence in this assay (P14902 whole entry, looked up): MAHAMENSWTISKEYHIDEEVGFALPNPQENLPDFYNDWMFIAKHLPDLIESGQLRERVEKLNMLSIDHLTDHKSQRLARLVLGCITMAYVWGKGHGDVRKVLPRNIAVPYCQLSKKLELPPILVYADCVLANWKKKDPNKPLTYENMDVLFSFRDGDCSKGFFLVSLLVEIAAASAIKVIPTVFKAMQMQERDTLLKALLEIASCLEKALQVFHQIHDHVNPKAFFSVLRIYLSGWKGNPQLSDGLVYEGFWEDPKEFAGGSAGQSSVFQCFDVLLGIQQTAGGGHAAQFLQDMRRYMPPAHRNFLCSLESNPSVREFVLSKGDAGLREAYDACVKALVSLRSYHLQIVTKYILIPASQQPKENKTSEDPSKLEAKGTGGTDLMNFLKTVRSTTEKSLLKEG

[3] = biological target: T1, Tryptophan 2,3-dioxygenase; test: Inhibition of TDO (unknown origin) assessed as reduction in N-formylkynurenine formation using L-tryptophan as substrate at 50 uM incubated for 75 mins by UV absorbance based analysis relative to control
Target sequence in this assay (P48775 whole entry, looked up): as the sequence (P48775 whole entry) above

[4] = biological target: T2, Indoleamine 2,3-dioxygenase 1; test: Inhibition of IDO1 (unknown origin) assessed as reduction in kynurenine production using L-tryptophan as substrate incubated for 1 hr by absorbance based microplate reader analysis
Target sequence in this assay (P14902 whole entry): as the sequence (P14902 whole entry, looked up) above

N#Cc1ccc(-c2nccc3c2[nH]c2ccccc23)cc1
IC50 [1]: 12 µM | inhibition [2]: 53% | inhibition [3]: 75% | IC50 [4]: > 50 µM

c1ccc2c(c1)[nH]c1c(-c3nccs3)nccc12
inhibition [2]: 5% | inhibition [3]: 2%

c1ccc2c(c1)[nH]c1c(-c3ccncc3)nccc12
inhibition [2]: 46% | inhibition [3]: 36%

Cc1nccc2c1[nH]c1ccccc12 [HARMAN]
IC50 [1]: 6.31 µM | inhibition [2]: 34% | inhibition [3]: 85%

c1ccc2c(c1)[nH]c1c(-c3cc[nH]n3)nccc12
inhibition [2]: 34% | inhibition [3]: 7%

Clc1ccc(-c2nccc3c2[nH]c2ccccc23)cc1
IC50 [1]: 8.29 µM | inhibition [2]: 86% | inhibition [3]: 81% | IC50 [4]: 7.58 µM

Clc1cc(Cl)cc(-c2nccc3c2[nH]c2ccccc23)c1
inhibition [2]: 75% | inhibition [3]: 8% | IC50 [4]: 16.5 µM

Fc1cccc(-c2nccc3c2[nH]c2ccccc23)c1
IC50 [1]: 10.9 µM | inhibition [2]: 28% | inhibition [3]: 86%

Fc1cc(-c2nccc3c2[nH]c2ccccc23)ccc1Br
inhibition [2]: 71% | inhibition [3]: 4% | IC50 [4]: 32.7 µM

Clc1cccc(-c2nccc3c2[nH]c2ccccc23)c1
IC50 [1]: 13.4 µM | inhibition [2]: 55% | inhibition [3]: 88% | IC50 [4]: > 50 µM

Oc1ccc(-c2nccc3c2[nH]c2ccccc23)cc1
inhibition [2]: 24% | inhibition [3]: 4%

N#Cc1cccc(-c2nccc3c2[nH]c2ccccc23)c1
IC50 [1]: 15.3 µM | inhibition [2]: 66% | inhibition [3]: 78% | IC50 [4]: > 50 µM

FC(F)(F)c1cccc(-c2nccc3c2[nH]c2ccccc23)c1
IC50 [1]: 5.39 µM | inhibition [2]: 9% | inhibition [3]: 88%

O=C1CC(c2c[nH]c3ccc(F)cc23)C(=O)N1 (stereo unspecified)
inhibition [2]: 92%

c1ccc2c(c1)[nH]c1cnccc12 [NORHARMANE]
IC50 [1]: 1.2 µM | inhibition [2]: 48% | inhibition [3]: 86%

c1ccc2c(c1)[nH]c1c(-c3cscn3)nccc12
inhibition [2]: 3% | inhibition [3]: 4%

c1ccc(-c2nccc3c2[nH]c2ccccc23)cc1
IC50 [1]: 7.24 µM | inhibition [2]: 7% | inhibition [3]: 86%

FC(F)(F)c1ccc(-c2nccc3c2[nH]c2ccccc23)cc1
inhibition [2]: 13% | inhibition [3]: 5%

c1ccc2c(c1)[nH]c1c(-c3ncc[nH]3)nccc12
inhibition [2]: 26% | inhibition [3]: 4%

c1csc(-c2nccc3c2[nH]c2ccccc23)c1
IC50 [1]: 10.8 µM | inhibition [2]: 61% | inhibition [3]: 82% | IC50 [4]: > 50 µM

O=[N+]([O-])c1cccc(-c2nccc3c2[nH]c2ccccc23)c1
inhibition [2]: 96% | inhibition [3]: 6% | IC50 [4]: 8.28 µM

c1ccc2c(c1)[nH]c1c(-c3ccsc3)nccc12
IC50 [1]: 0.81 µM | inhibition [2]: 34% | inhibition [3]: 94%

c1coc(-c2nccc3c2[nH]c2ccccc23)c1
inhibition [2]: 33% | inhibition [3]: 37%

Brc1ccc(-c2nccc3c2[nH]c2ccccc23)cc1
inhibition [2]: 51% | inhibition [3]: 5% | IC50 [4]: > 50 µM

c1ccc2c(c1)[nH]c1c(-c3ccoc3)nccc12
IC50 [1]: 1.14 µM | inhibition [2]: 5% | inhibition [3]: 92%

c1cncc(-c2nccc3c2[nH]c2ccccc23)c1
IC50 [1]: 2.14 µM | inhibition [2]: 26% | inhibition [3]: 89%

O=[N+]([O-])c1ccc(-c2nccc3c2[nH]c2ccccc23)cc1
inhibition [2]: 94% | inhibition [3]: 3% | IC50 [4]: 8.44 µM

Brc1cccc(-c2nccc3c2[nH]c2ccccc23)c1
IC50 [1]: 20.3 µM | inhibition [2]: 93% | inhibition [3]: 65% | IC50 [4]: 4.95 µM

Fc1ccc(-c2nccc3c2[nH]c2ccccc23)cc1
inhibition [2]: 27% | inhibition [3]: 3%

c1ccc2c(c1)[nH]c1c(-c3cnn[nH]3)nccc12
IC50 [1]: 19.5 µM | inhibition [2]: 91% | inhibition [3]: 77% | IC50 [4]: 13.9 µM
